# No end group written: not given here.
# Experiments:
# gp120 of HIV-1 IIIB = experiment: Binding ELISA, gp120 of HIV-1 IIIB; conditions: for Binding of designed peptides to gp120: peptide-coated plate, 500ng gp120, 2 hrs at 37°C, 492nm (S1 Fig)
# Experimental: (§1) After blocking with 3% bovine serum albumin (BSA) in PBS for 30 min, 100 μl of gp120 (100ng/well) in PBS-0.05% BSA was added to each well and incubated for 2 hrs at 37°C. After three washings with PBS-Tween-20 (PBS-T), cells were incubated with anti-gp120 antibody at 1:200 dilution and then with horse radish peroxidase-(HRP) conjugated secondary goat anti-human antibody (1:10000 dilution) for 1 hr at 37°C. This was followed by incubation with O-phenylenediamine for 20 min. The absorbance was measured at 492 nm on a microplate ELISA reader (ELx-800, Bio-Tek Instruments, USA). Background values obtained in the wells without HbAHP-25 were subtracted from the absorbance values from wells having all other reagents.
# Supplementary file pone.0124839.s001.tif: S1 Fig Binding of designed peptides to gp120. Peptides that were designed in silico were evaluated for their binding to gp120 of HIV-1 IIIB. Peptides were coated on 96 well microtiter plate for 16 hrs and then incubated with 500ng of gp120 for 2 hrs at 37°C. This was followed by addition of anti-gp120 antibody, and absorbance was read at 492nm. Background absorbance was subtracted from the wells where peptides were not coated. […] (TIF) Click here for additional data file.
# HIV-1 IIIB = experiment: Anti-HIV activity, p24 antigen assay in H9 cells; type: cell-based; design: key to Anti-HIV activity: +: moderate; ++: significant; NA: No activity; conditions: for Anti-HIV activity (in words): 0.1 MoI HIV-1 IIIB pre-incubated with peptide, H9 cells, p24 on day 4
# Experimental: Supplementary file pone.0124839.s002.tif: S2 Fig Anti-HIV activity of 3 designed peptides. Anti HIV activity of three peptides was determined using H9 cells. H9 cells were infected for 4 hrs with 0.1 MoI of HIV-1 IIIB pre-incubated with various concentrations of peptides. Peptides were added post infection as well. Supernatant was collected on day 4 post infection, and p24 antigen assay was performed. […] (TIF) Click here for additional data file.
# Supplementary file pone.0124839.s003.tif: S3 Fig Anti-HIV activity of peptide analogues of peptide 1. After modifying the peptide 1, we performed anti-HIV assay as earlier. HIV-1 IIIB was pre-incubated with peptide analogues for 1 hr and then added to H9 cells for 4 hrs. Levels of p24 levels were determined on day 4 post infection. […] (TIF) Click here for additional data file.
# HIV-1 IIIB and ADA5 = experiment: Time-of-addition assay in TZM-bl cells; conditions: 71.40 μM
# Experimental: Luciferase activity was measured at 48 hrs post treatment using Luminometer (ELx-800, Bio-Tek Instruments, USA). VRC01 (0.1 μM) antibody was used as a positive control.
# gp120 of HIV-1 BaL = experiment: Binding ELISA, gp120 of HIV-1 BaL; conditions: 2.2–71.40 μM coated, gp120 100ng/well
# Experimental: as §1
# HIV = conditions: cited from earlier work
# Source text: HIV-1 infection can be targeted at various stages, for example, viral entry, viral replication or assembly of viral components. HIV entry into the host cells is facilitated by binding of viral envelope glycoprotein (gp120) to host CD4 receptor [3, 4]. CD4-gp120 interaction initiates a cascade of events that stimulates gp41 to promote viral and host membrane fusion. Inhibition of gp120-CD4 interaction or virus-host cell fusion thus appears to be an attractive strategy to prevent HIV-1 infection. Towards this, significant advances have been made. […] Moreover, some of the AMPs cause adverse effects on vaginal commensals like lactobacilli which are required to maintain low pH in vaginal mucosa.
# vaginal mucosa = conditions: cited from earlier work
# Source text: Its activity is directed more towards the virus than to host cells. Some of the known anti-HIV peptides such as defensins have better selectivity index, but many of such peptides/molecules act as a double edged-sword. These peptides inhibit HIV infection but also lead to inflammation and/or potentiate pathogen invasion.
# CXCR4 = conditions: cited from earlier work
# HIV-host cell fusion = conditions: cited from earlier work
# CCR5 = test system: CCR5; design: method as in PMID 20721836; conditions: cited from earlier work
molecule,measurement,setting,value
"VKGHGKKVADALTNAVAHVDDMPNALSAL [Peptide-3, Hb-α subunit derived 29-residue peptide (55–83)]",Binding of designed peptides to gp120,gp120 of HIV-1 IIIB,showed binding to gp120 of HIV-1 IIIB
same,Anti-HIV activity (in words),HIV-1 IIIB,showed anti-HIV activity
same,Anti-HIV activity,"HIV-1 IIIB; class symbols of Table 1, HIV-1 IIIB in H9 cells, p24 (S2, S3 Fig)",+
"PLVKDVLRSLCNHAHKCVTLALLRH [Scrambled peptide(sP), 25 mer scrambled peptide, negative control]",Inhibition (scrambled control),HIV-1 IIIB and ADA5,no inhibition
same,Binding to recombinant gp120 of HIV-1 IIIB,"gp120 of HIV-1 IIIB; ELISA, 2.2–71.40 μM coated, gp120 100ng/well",did not bind
same,Binding to recombinant gp120 of HIV-1 BaL,gp120 of HIV-1 BaL,did not bind
"indolicidin: natural antimicrobial peptide (ILPWKWPWWPWRR; not fully specified (C-terminus); ends and bridges not checked; UniProt P33046 131-143, looked up)",Anti-HIV activity,HIV,reported to have anti-HIV activity
CCCCCCCCCc1ccc(OCCOCCOCCOCCOCCOCCOCCOCCOCCO)cc1 [Nonoxynol-9],Effects on vaginal mucosa,vaginal mucosa,caused detrimental effects on vaginal mucosa
c1cc(CN2CCCNCCNCCCNCC2)ccc1CN1CCCNCCNCCCNCC1 [AMD3100],CXCR4 antagonism,CXCR4,CXCR4 antagonists
"SAQVKGHGKKVADALTNAVAHVDDMPNAL [Peptide-2, Hb-α subunit derived 29-residue peptide (52–80)]",Binding of designed peptides to gp120,gp120 of HIV-1 IIIB,failed to show any binding
same,Anti-HIV activity (in words),HIV-1 IIIB; listed as peptide 2,failed to demonstrate any activity
same,Anti-HIV activity (in words),HIV-1 IIIB; listed as peptide-2,did not show any anti-HIV-1 activity
Enfuvirtide,Alleviation of HIV infections,HIV,alleviate HIV infections effectively
same,Resistance on long term treatment,HIV; mutations in gp41,leads to resistance
same,Effect on HIV-host cell fusion,HIV-host cell fusion,interfere with the HIV-host cell fusion
"human defensin-6: antimicrobial peptide, printed as human defensin-5 and 6 (AFTCHCRRSCYSTEYSYGTCTVMGINHRFCCL; ends and bridges not checked; cysteine pairing not given here; UniProt Q01524 69-100, looked up)",Effect on HIV infection,HIV,exacerbate HIV infection
CCCCOCCOc1ccc(-c2ccc3c(c2)/C=C(/C(=O)Nc2ccc([S@@+]([O-])Cc4cncn4CCC)cc2)CCCN3CC(C)C)cc1 [Cencriviroc],CCR5 antagonism,CCR5,CCR5 antagonists

# — PMC4411102 (PLoS ONE, 2015)
